Source: PubChem BioAssay (NCI)
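The compound was tested at five concentrations on cells cultured in 96-well plates, with a 48-hour exposure period. The concentration for 50% growth inhibition is given as GI50. TGI: concentration producing complete growth inhibition.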

What was measured:
Assay in all cases: NCI anticancer screen, dose series, 48 h
NCI-H460 lung = tested on: NCI-H460 lung
OVCAR-8 ovarian = tested on: OVCAR-8 ovarian
HOP-92 NSCLC = tested on: HOP-92 NSCLC
OVCAR-3 ovarian = tested on: OVCAR-3 ovarian
SNB-75 CNS = tested on: SNB-75 CNS
UACC-257 melanoma = tested on: UACC-257 melanoma
SK-MEL-28 melanoma = tested on: SK-MEL-28 melanoma
NCI-H522 lung = tested on: NCI-H522 lung

Structure (SMILES)	GI50 (NCI-H460 lung) [µM]	TGI (NCI-H460 lung) [µM]	GI50 (OVCAR-8 ovarian) [µM]	TGI (OVCAR-8 ovarian) [µM]	GI50 (HOP-92 NSCLC) [µM]	TGI (HOP-92 NSCLC) [µM]	GI50 (OVCAR-3 ovarian) [µM]	TGI (OVCAR-3 ovarian) [µM]	GI50 (SNB-75 CNS) [µM]	TGI (SNB-75 CNS) [µM]	GI50 (UACC-257 melanoma) [µM]	TGI (UACC-257 melanoma) [µM]	GI50 (SK-MEL-28 melanoma) [µM]	TGI (SK-MEL-28 melanoma) [µM]	GI50 (NCI-H522 lung) [µM]	TGI (NCI-H522 lung) [µM]
Cn1c(COC(=O)NCCN2CCOCC2)nc2c(N3CCOCC3)nc(-c3ccccc3)nc21	1.25	2.77	1.3	3.4	0.779	2.45	0.343	1.53	1.11	2.67	1.44	3.16	1.51	2.94	0.424	2.02
CCCCCCCCCCCCCCCCCC1=NC(C)(C)CN1CCO	1.97	3.65	–	–	1.4	7.84	1.61	2.97	1.81	4.01	1.8	3.57	1.81	3.2	1.55	3.15
CCC1(N2C(=O)c3c(F)c(F)c(F)c(F)c3C2=O)C(=O)NC(=O)N(c2ccccc2)C1=O (stereo unspecified)	3.22	11.5	3.47	11.4	2.01	4.17	1.67	4.1	1.9	5.09	5.06	17.1	2.79	10.6	3.13	26.2
CN(C)c1ccc(Sc2ccc3nc(N)nc(N)c3c2)cc1	0.174	2.71	0.589	9.88	1.32	5.83	1.56	4.59	2.14	16.3	1.09	4.91	2.76	15.5	0.934	11.7
N#Cc1ccc(N2Cc3cc(Cl)ccc3OC3=C2C(=O)N(Cc2ccccc2)C3=O)cc1	2.09	4.52	–	–	1.45	3.09	0.442	1.54	1.24	2.53	1.35	2.85	1.62	3.41	0.25	0.62
COC(=O)Nc1nc2ccc(Sc3ccc(NC(=O)Nc4cc(C(F)(F)F)ccc4F)cc3)cc2[nH]1	2.73	6.79	4.23	11.6	2.53	10.3	3.05	6.26	3.32	10.9	4.63	25	2.81	16.5	2.05	6.27
CCOC(=O)C1=C(c2ccccc2)N(Cc2ccccc2)C2(O)C=CC(=O)C3C(=O)N(c4ccccc4)C(=O)C132 (stereo unspecified)	1.53	3.49	3.09	17.5	2.03	5.54	2.11	4.33	2.1	4.62	2.82	8.06	1.73	3.85	–	–
